{"source": "patent US8309144B2", "about": "“Use of a cruciferous protein hydrolysate as a depigmentation agent or for a cosmetic and/or pharmaceutical composition” (ISP Investments Inc., priority 2004, dated 2012)", "tested_on": "melanin in the epidermis of ex vivo skin", "test": "Whitening effect on ex vivo skin, Fontana-Masson staining with image analysis of luminosity histograms (Example 5)", "type": "cell-based, human", "experimental": "Comparative studies were conducted using 1% of a non fermented rapeseed peptide hydrolysate for 72 hours, or 1% arbutin, known for its whitening effect, or a combination of both on ex vivo skin.\nSkin biopsies are prepared as described in example 2. Four different conditions are tested: • Condition 1: control, no active ingredient is applied • Condition 2: Arbutin 1% is applied twice a day over a period of 72 hours • Condition 3: non fermented rapeseed extract is applied twice a day over a period of 72 hours • Condition 4: a combination of 1% of a non fermented rapeseed extract and 0.5% arbutin is applied twice a day over a period of 72 hours\nA quantitative evaluation of the presence of melanin in the epidermis of the skin samples is carried out histologically, under an optical microscope, using the Fontana-Masson staining method as described in example 2.\nTo confirm visual observations and quantify the results, image analysis was performed using several image processing steps and analysis of luminosity histograms.\nAll date were normalized to the length of the basal layer within a given histological section."}
{"smiles": "OC[C@H]1O[C@@H](Oc2ccc(O)cc2)[C@H](O)[C@@H](O)[C@@H]1O", "note": "[arbutin]", "values": [{"measurement": "decrease in melanin content (normalized integrated values of histograms)", "setting": "ex vivo skin, 1%, 72 hours", "value": 32, "unit": "%"}, {"measurement": "melanin content, visual observation (in words)", "setting": "ex vivo skin, 1%, 72 hours", "value": "significant decrease in melanin content"}, {"measurement": "% of decrease (melanin content vs control)", "setting": "ex vivo skin, applied twice a day over 72 hours, 1% (combination 1%/0.5%)", "value": "−31.8", "unit": "%"}, {"measurement": "Area under curve (luminosity histogram)", "setting": "ex vivo skin, applied twice a day over 72 hours, 1% (combination 1%/0.5%), control 54517", "value": 46247}, {"measurement": "Area/length", "setting": "normalized to length of basal layer, applied twice a day over 72 hours, control 66.78", "value": 45.53, "unit": "l/micron"}]}
